# Measurements published in paper PMC6417734 (PLoS ONE, 2019).
# Values joined by “and” are separate entries in the source; they are usually repeats but may differ in a detail not shown here. Identical values can stand only once. Like-named read-outs stand apart in the source and are kept apart here.
# How the values were obtained:
# [1] = Oral pharmacokinetic study in rats (plasma, UPHILIC-MS/MS, non-compartmental analysis); type: in vivo, wistar albino rats; conditions: for Kel: in h-1 (unit assumed); for AUClast / AUCtot: in ng·h/mL; for thalf: in h (unit assumed)
# Experimental: Six healthy rats weighing between 180–220 g were received and maintained under standard laboratory conditions before the experiments. […] Blood samples (approx.0.5 ml) were collected at 0, 0.33, 0.66, 1, 2, 3, 5, 8, 12 and 24 h in lithium heparinized tubes after dosing. Plasma was separated by centrifugation for 8 min at 4000 rpm and stored at −80 °C till further analysis.
# The non-compartmental model was used to calculate the pharmacokinetic parameters using WinNonlin software (Pharsight Co., Mountain View, CA, USA). The maximum plasma concentration (Cmax), time to achieve this (Tmax), area under curve zero to last and infinity (AUC0-24; AUC0-∞), half-life (T½), elimination rate constant (Kel) and mean residence time were measured. Statistical parameters like mean, standard deviation and % RSD were calculated by using MS-Excel 2013 (Microsoft).
# [2] = Stability in spiked rat plasma under different storage conditions; type: physicochemical; conditions: for stability in spiked rat plasma, short term and long term storage: LQC and HQC, room temperature and -80 °C for 30 days, acceptance within ±15%; for stability of processed plasma samples in autosampler and after freeze-thaw cycles: autosampler for 24 h, three freeze-thaw cycles; for Processed samples (24 h) Accuracy (%): processed rat plasma samples, autosampler at 10 °C; for long term (1 month) Accuracy (%) / Short term (8 h) Accuracy (%) / Freeze/Thaw (3 cycle) Accuracy (%): spiked rat plasma; for long term (1 month) Accuracy (%): -80 °C for 30 days; for Short term (8 h) Accuracy (%): room temperature; for Freeze/Thaw (3 cycle) Accuracy (%): three cycle from -80 °C to room temperature
# Experimental: The short-term (at room temperature for 8 h); post preparation (in autosampler at 10 °C for 24 h), freeze-thaw (three cycle from ─80 °C to room temperature) and long-term (─80 °C for 30 days) stabilities were determined. All stabilities results were measured against freshly spiked CCs and acceptance were limited to be within ±15%.
# [3] = system: SUA levels; conditions: ALP dose of 300 mg/day; ref [10]–[12]; cited from earlier work
# [4] = Mean of six rats (supplement), oral ALP 20 mg/kg and LES 15 mg/kg
# [5] = Wistar albino, rat, plasma, po, 20 mg/kg, Mean line of six rats (supplement), oral ALP 20 mg/kg and LES 15 mg/kg, read-out: Tmax
# [6] = Wistar albino, rat, plasma, po, 20 mg/kg, Mean of six rats (supplement), oral ALP 20 mg/kg and LES 15 mg/kg
# [7] = Wistar albino, rat, plasma, po, 20 mg/kg, Mean of six rats (supplement), oral ALP 20 mg/kg and LES 15 mg/kg, read-out: AUClast
# [8] = Wistar albino, rat, plasma, po, 20 mg/kg, Mean of six rats (supplement), oral ALP 20 mg/kg and LES 15 mg/kg, read-out: Cmax
# [9] = Wistar albino, rat, plasma, po, 20 mg/kg, Mean of six rats (supplement), oral ALP 20 mg/kg and LES 15 mg/kg, read-out: MRT
# [10] = Wistar albino, rat, plasma, po, 20 mg/kg, individual animal (rats R1-R6), oral ALP 20 mg/kg and LES 15 mg/kg
# [11] = Wistar albino, rat, plasma, po, 20 mg/kg, individual animal (rats R1-R6), oral ALP 20 mg/kg and LES 15 mg/kg, read-out: AUClast
# [12] = Wistar albino, rat, plasma, po, 20 mg/kg, individual animal (rats R1-R6), oral ALP 20 mg/kg and LES 15 mg/kg, read-out: Cmax
# [13] = Wistar albino, rat, plasma, po, 20 mg/kg, individual animal (rats R1-R6), oral ALP 20 mg/kg and LES 15 mg/kg, read-out: MRT
# [14] = Wistar albino, rat, plasma, po, 20 mg/kg, rats, oral ALP 20 mg/kg, read-out: Tmax
# [15] = Wistar albino, rat, plasma, po, rat plasma, oral co-administration of ALP 20 mg/kg and LES 15 mg/kg, mean ± SD, six rats, read-out: Cmax
# [16] = Wistar albino, rat, plasma, po, rat plasma, oral co-administration of ALP 20 mg/kg and LES 15 mg/kg, mean ± SD, read-out: AUC0-24
# [17] = Wistar albino, rat, plasma, po, rat plasma, oral co-administration of ALP 20 mg/kg and LES 15 mg/kg, mean ± SD, read-out: MRT
# [18] = Wistar albino, rat, plasma, po, rat plasma, oral co-administration of ALP 20 mg/kg and LES 15 mg/kg, six rats, read-out: Tmax
# [19] = individual animal (rats R1-R6), oral ALP 20 mg/kg and LES 15 mg/kg, in h
# [20] = individual animal (rats R1-R6), oral ALP 20 mg/kg and LES 15 mg/kg
# [21] = individual animal (rats R1-R6), oral ALP 20 mg/kg and LES 15 mg/kg, in ng/mL
# [22] = HQC nominal value (ALP 7000, OXP 10000, LES 8000 ng/mL)
# [23] = LQC nominal value (ALP 70, OXP 100, LES 80 ng/mL)
"Kel [1, 4]","Tmax [1, 5] [h]","Cmax [1, 15] [ng/mL]","AUC(0-t) [1, 16] [ng·h/mL]","MRT [1, 17] [h]","Tmax [1, 18] [h]","stability in spiked rat plasma, short term and long term storage [2]",stability of processed plasma samples in autosampler and after freeze-thaw cycles [2],"Processed samples (24 h) Accuracy (%) [2, 22] [%]","Processed samples (24 h) Accuracy (%) [2, 23] [%]","long term (1 month) Accuracy (%) [2, 22] [%]","Short term (8 h) Accuracy (%) [2, 22] [%]","Freeze/Thaw (3 cycle) Accuracy (%) [2, 22] [%]","long term (1 month) Accuracy (%) [2, 23] [%]","Short term (8 h) Accuracy (%) [2, 23] [%]","Freeze/Thaw (3 cycle) Accuracy (%) [2, 23] [%]",Compound,"MRT [1, 19]","Cmax [1, 21]","AUClast [1, 20]","AUCtot [1, 20]",further results
0.5391,0.66,2030 ± 509,3510 ± 571,1.98 ± 0.32,0.66,acceptable limits,stable,99.34,96.54,88.71,90.84,100.54,87.23,93.08,108.60,"Oc1ncnc2[nH]ncc12 [ALP, Allopurinol]",1.607 and 2.233 and 2.477 and 1.777 and 1.801,1667.45 and 2378.66 and 2694.26 and 2321.62 and 1731.2,2635.21 and 3641.95 and 4404.97 and 3470.35 and 3598.67,2743.88 and 3774.36 and 4653.35 and 3656.48 and 3742.26,"AUC [1, 6]: 3660 ng·h/mL; AUC(0-t) [1, 7]: 3510 ng·h/mL; Cmax [1, 8]: 2030 ng/mL; MRT [1, 9]: 1.99 h; AUC [1, 10]: 3390 ng·h/mL; AUC(0-t) [1, 11]: 3320 ng·h/mL; Cmax [1, 12]: 1380 ng/mL; MRT [1, 13]: 2.04 h; Tmax ([1]; Wistar albino, rat, plasma, po, 20 mg/kg, individual animal (rats R1-R6), oral ALP 20 mg/kg and LES 15 mg/kg, read-out: Tmax): 0.33 h; Tmax [1, 14]: 0.66 h; Kel [1, 20]: 0.3461; detectability in plasma after administration ([1]; rats, post administration of 20 mg/kg of ALP): undetectable after 8 h; patients who do not achieve sustained reductions in SUA levels (< 6 mg/dL) [3]: > 50%"
0.09441,–,8270 ± 191,65910 ± 139,12.4 ± 4.51,1.5,acceptable limits,stable,97.01,112.54,88.59,95.12,90.13,89.81,91.26,94.8,"O=C(O)CSc1nnc(Br)n1-c1ccc(C2CC2)c2ccccc12 [LES, Lesinurad]",20.1145 and 8.709 and 12.6844 and 8.471 and 9.848 and 14.9899,5494.01 and 8320.88 and 6878.96 and 11031.4 and 8808.81 and 9091.69,64836.4 and 61847.4 and 85561.6 and 56410.3 and 78552.6,68738 and 73776.1 and 90181.7 and 60657.3 and 99665.6,"thalf [1, 4]: 8.497; Tmax ([1]; Wistar albino, rat, plasma, po, 15 mg/kg, Mean line of six rats (supplement), oral ALP 20 mg/kg and LES 15 mg/kg, read-out: Tmax): 1.5 h; AUC ([1]; Wistar albino, rat, plasma, po, 15 mg/kg, Mean of six rats (supplement), oral ALP 20 mg/kg and LES 15 mg/kg): 77100 ng·h/mL; AUC(0-t) ([1]; Wistar albino, rat, plasma, po, 15 mg/kg, Mean of six rats (supplement), oral ALP 20 mg/kg and LES 15 mg/kg, read-out: AUClast): 65900 ng·h/mL; Cmax ([1]; Wistar albino, rat, plasma, po, 15 mg/kg, Mean of six rats (supplement), oral ALP 20 mg/kg and LES 15 mg/kg, read-out: Cmax): 8270 ng/mL; MRT ([1]; Wistar albino, rat, plasma, po, 15 mg/kg, Mean of six rats (supplement), oral ALP 20 mg/kg and LES 15 mg/kg, read-out: MRT): 12.5 h; AUC ([1]; Wistar albino, rat, plasma, po, 15 mg/kg, individual animal (rats R1-R6), oral ALP 20 mg/kg and LES 15 mg/kg): 69800 ng·h/mL; AUC(0-t) ([1]; Wistar albino, rat, plasma, po, 15 mg/kg, individual animal (rats R1-R6), oral ALP 20 mg/kg and LES 15 mg/kg, read-out: AUClast): 48200 ng·h/mL; Tmax [1, 19]: 1 and 3 and 2 and 5 and 0.66; thalf [1, 20]: 13.589 and 5.574 and 9.1146 and 5.126 and 5.707 and 11.8685; Kel [1, 20]: 0.05101 and 0.1244 and 0.07605 and 0.1352 and 0.1214 and 0.0584; ratios of AUC (AUC0-24/ AUC0-∞) ([1]; rats, oral ALP 20 mg/kg and LES 15 mg/kg): ≥ 85%"
0.1191,2,7500 ± 156,44800 ± 373,7.58 ± 1.52,2,acceptable limits,stable,102.65,104.72,91.04,95.12,92.67,92.43,96.85,102.55,"O=c1[nH]c(=O)c2c[nH]nc2[nH]1 [OXP, oxypurinol]",6.956 and 5.837 and 6.059 and 8.731 and 9.5786,7192.39 and 10535.3 and 7573.56 and 6585.93 and 6831.19,49418.6 and 48647.7 and 44044.7 and 42639.7 and 44576.2,50759.5 and 50350.9 and 45393.1 and 45993.3 and 50026.1,"AUC [1, 6]: 47400 ng·h/mL; AUC(0-t) [1, 7]: 44800 ng·h/mL; Cmax [1, 8]: 7500 ng/mL; MRT [1, 9]: 7.58 h; AUC [1, 10]: 41900 ng·h/mL; AUC(0-t) [1, 11]: 39500 ng·h/mL; Cmax [1, 12]: 6250 ng/mL; MRT [1, 13]: 8.33 h; Tmax [1, 14]: 2 h; Tmax [1, 19]: 3 and 0.66 and 1"
